Measurements as given in patent publication US9683253B2, “Method and device for identifying cells” (IMEC, priority 2013, dated 2017).

Columns and labels:
MCF7 cells = format: cell-based
PBMC = format: cell-based

SLO
dose dependence of change in Fc (MCF7 cells): the higher the dose, the bigger the change in the Fc
recovered Fc versus native Fc (MCF7 cells): increases higher than the native Fc
recovered Fc versus native Fc (PBMC): drops to a lower value than the native Fc
